Drawing on ChEMBL document CHEMBL2057125, “Structural simplification of bioactive natural products with multicomponent synthesis. 4. 4H-pyrano-[2,3-b]naphthoquinones with anticancer activity” (2012), this text covers Activity and GI50 for 25 compounds.

What is called GI50 is the concentration that inhibits growth by half.

The subject of experiment [1] is Jurkat. The experiment can be described thus: Induction of apoptosis in human Jurkat cells assessed as apoptotic cells at 50 uM after 24 hrs using annexin-V/Propidium iodide by flow cytometry. Type of experiment: functional.
Experiment [2] has as its system Jurkat. The experiment can be described thus: Antiproliferative activity against human Jurkat cells assessed as reduction in cell viability after 48 hrs by MTT assay. Type of experiment: functional. A general note: Tetrazolium assays rely on reduction of a dye to a coloured formazan, in cell work by metabolically active cells.
Experiment [3] in a line: Antiproliferative activity against human MCF7/AZ cells assessed as reduction in cell viability after 48 hrs by MTT assay. Type of experiment: functional.
A further experiment relates to HeLa. The experiment can be described thus: Antiproliferative activity against human HeLa cells assessed as reduction in cell viability after 48 hrs by MTT assay. Type of experiment: functional.
Experiment [4] can be described thus: Antiproliferative activity against human Hs683 cells assessed as reduction in cell viability after 72 hrs by MTT assay. Conditions: Hs 683, 72 h. Format: functional.
The test system of the next experiment is A549. As to the kind of experiment: Antiproliferative activity against human A549 cells assessed as reduction in cell viability after 72 hrs by MTT assay. Format: functional. Conditions: A549, 72 h.
The next experiment relates to PC-3. As to the kind of experiment: Antiproliferative activity against human PC3 cells assessed as reduction in cell viability after 72 hrs by MTT assay. Type of experiment: functional. The note with it: PC-3, 72 h.
The nature of experiment [5]: Antiproliferative activity against human U373 cells assessed as reduction in cell viability after 72 hrs by MTT assay. Type of experiment: functional, U-373MG ATCC. The note with it: U373 MG.
Experiment [6] in a line: Antiproliferative activity against human OE21 cells assessed as reduction in cell viability after 72 hrs by MTT assay. Conditions: OE21, 72 h. Type of experiment: functional.
The next experiment deals with LoVo. As to the kind of experiment: Antiproliferative activity against human LoVo cells assessed as reduction in cell viability after 72 hrs by MTT assay. Type of experiment: functional.
A further experiment relates to SK-MEL-28. The experiment can be described thus: Antiproliferative activity against human SK-MEL-28 cells assessed as reduction in cell viability after 72 hrs by MTT assay. Type of experiment: functional. Conditions: SK-MEL-28, 72 h.

In the case of `N#CC1=C(N)OC2=C(C(=O)c3ccccc3C2=O)C1c1c(F)cccc1Cl` (stereo not drawn), the Activity in the experiment with Jurkat [1] is reported as 21.3%. For the same compound, the GI50 with Jurkat [2] turned out to be 52.3 µM; in experiment [3], 8 µM; in the experiment on HeLa, 34.4 µM.
The matching figures for `N#CC1=C(N)OC2=C(C(=O)c3ccccc3C2=O)C1c1ccc(Br)cc1` (stereo not drawn): 40.1%, 38.3 µM, 22.8 µM and 30 µM.
As to `N#CC1=C(N)OC2=C(C(=O)c3ccccc3C2=O)C1c1ccc(-c2ccccc2)cc1` (stereo not drawn), the Activity in the experiment with Jurkat [1] stood at 11.2%. The GI50 in the experiment on Jurkat [2] turned out to be 122 µM; in experiment [3], 26 µM; in the experiment on HeLa it was 23.6 µM.
In the case of `CC1(C)CCC2=C(O1)c1ccccc1C(=O)C2=O` [LAPACHONE], the Activity in the experiment on Jurkat [1] is on record as 51%. Also, the GI50 was 6.1 µM in the experiment on Jurkat [2]; 6 µM in [3]; 0.4 µM in experiment [4]; 0.8 µM with A549; 0.01 µM in the experiment with PC-3; 0.4 µM in experiment [5]. The GI50 in [6] stood at 0.6 µM; in the experiment with HeLa it was 4.6 µM; in the experiment with LoVo, 0.3 µM; in the experiment with SK-MEL-28, 0.6 µM.
Consider `N#CC1=C(N)OC2=C(C(=O)c3ccccc3C2=O)C1c1cccc([N+](=O)[O-])c1` (stereo not drawn), for which the Activity in the experiment with Jurkat [1] is 33.6%. In addition, the 50% growth inhibitory concentration (GI50) in the experiment with Jurkat [2] is 19.1 µM; in [3] it was 10.8 µM; in the experiment on HeLa, 9.1 µM.
In the case of `N#CC1=C(N)OC2=C(C(=O)c3ccccc3C2=O)C1c1cccc(Br)c1` (stereo not drawn), the Activity in the experiment with Jurkat [1] turned out to be 48.4%. Besides, the GI50 in the experiment with Jurkat [2] is 20 µM; in [3], 28.6 µM; in the experiment with HeLa, 16.1 µM.
Take `CC(C)c1ccc(C2C(C#N)=C(N)OC3=C2C(=O)c2ccccc2C3=O)cc1` (stereo not drawn): in the experiment on Jurkat [1], the Activity is reported as 2.9%. For the same compound, the GI50 with Jurkat [2] was determined as 80.6 µM; in experiment [3] it was 34 µM; in the experiment on HeLa, 62.5 µM.
As for `N#CC1=C(N)OC2=C(C(=O)c3ccccc3C2=O)C1c1cccc(Cl)c1` (stereo not drawn), the Activity in the experiment on Jurkat [1] is listed as 22%. Further, the GI50 was determined as 108 µM with Jurkat [2], 59.8 µM in experiment [3] and 77.5 µM with HeLa.
On to `N#CC1=C(N)OC2=C(C(=O)c3ccccc3C2=O)C1c1cccnc1` (stereo not drawn), for which the Activity in the experiment on Jurkat [1] is 20.8%. In addition, the GI50 in the experiment with Jurkat [2] was determined as 20.4 µM; in experiment [3], 3.4 µM; in the experiment on HeLa, 14.2 µM.
Turning to `N#CC1=C(N)OC2=C(C(=O)c3ccccc3C2=O)C1c1ccc(C(=O)O)cc1` (stereo not drawn), the Activity with Jurkat [1] is recorded as 4.1%. Also, the GI50 in the experiment on Jurkat [2] amounted to 332 µM; in experiment [3] it was 94.4 µM; in the experiment with HeLa, 119 µM.
For `N#CC1=C(N)OC2=C(C(=O)c3ccccc3C2=O)C1c1ccc(OC(F)(F)F)cc1` (stereo not drawn), in the experiment with Jurkat [1], the Activity is recorded as 13.5%. Also, the values for the GI50 (in the experiment on Jurkat [2]; in experiment [3]; in the experiment on HeLa) were 105 µM, 7.1 µM and 4.3 µM, respectively.
With `Cc1ccc(C2C(C#N)=C(N)OC3=C2C(=O)c2ccccc2C3=O)o1` (stereo not drawn), the Activity with Jurkat [1] is listed as 57.8%. Moreover, the concentration for 50% growth inhibition (GI50) in the experiment on Jurkat [2] was 47.8 µM; in experiment [3] it was 51.6 µM; in the experiment on HeLa, 54.3 µM.
For the compound `N#CC1=C(N)OC2=C(C(=O)c3ccccc3C2=O)C1c1cccs1` (stereo not drawn), in the experiment on Jurkat [1], the Activity is listed as 11.2%. The GI50 amounted to 82.4 µM in the experiment on Jurkat [2], 36.9 µM in experiment [3] and 94 µM in the experiment with HeLa.
With `N#CC1=C(N)OC2=C(C(=O)c3ccccc3C2=O)C1c1ccc([N+](=O)[O-])cc1` (stereo not drawn), in the experiment with Jurkat [1], the Activity worked out at 23.1%. Further, the concentration for 50% growth inhibition (GI50) stood at 24.3 µM in the experiment on Jurkat [2], 9.8 µM in experiment [3] and 16.8 µM in the experiment on HeLa.
For the compound `N#CC1=C(N)OC2=C(C(=O)c3ccccc3C2=O)C1c1ccccc1Br` (stereo not drawn), the Activity in the experiment on Jurkat [1] worked out at 41.7%. The GI50 with Jurkat [2] was determined as 30.7 µM; in experiment [3], 26.3 µM; in the experiment on HeLa, 31.6 µM.
For the compound `N#CC1=C(N)OC2=C(C(=O)c3ccccc3C2=O)C1c1ccc(O)cc1` (stereo not drawn), the Activity in the experiment with Jurkat [1] is 16.7%. The 50% growth inhibitory concentration (GI50) in the experiment with Jurkat [2] amounted to 85 µM; in [3] it was 8.6 µM; in the experiment with HeLa, 30.6 µM.
`N#CC1=C(N)OC2=C(C(=O)c3ccccc3C2=O)C1c1ccccc1` (stereo not drawn): the Activity in the experiment with Jurkat [1] turned out to be 16.7%. Also, the GI50 was 43.3 µM in the experiment on Jurkat [2], 18.5 µM in experiment [3] and 23.5 µM in the experiment on HeLa.
Take `N#CC1=C(N)OC2=C(C(=O)c3ccccc3C2=O)C1c1ccc(C(F)(F)F)cc1` (stereo not drawn): the Activity with Jurkat [1] was determined as 15.5%. The GI50 was 80.5 µM in the experiment with Jurkat [2], 5.6 µM in experiment [3] and 11.8 µM with HeLa.
Take `N#CC1=C(N)OC2=C(C(=O)c3ccccc3C2=O)C1c1ccc(Cl)cc1` (stereo not drawn): the Activity in the experiment on Jurkat [1] is 23.8%. Further, the GI50 with Jurkat [2] is 105 µM; in experiment [3], 24 µM; in the experiment on HeLa, 31.7 µM.
As to `N#CC1=C(N)OC2=C(C(=O)c3ccccc3C2=O)C1c1ccncc1` (stereo not drawn), the Activity in the experiment on Jurkat [1] turned out to be 28.6%. Besides, the values for the GI50 (in the experiment with Jurkat [2]; in experiment [3]; in the experiment with HeLa) were 23.9 µM, 6 µM and 14.5 µM, respectively.
As to `CC1(C)CCC2=C(O1)C(=O)c1ccccc1C2=O` [ALPHA-LAPACHONE], in the experiment with Jurkat [1], the Activity turned out to be 7.4%. The concentration for 50% growth inhibition (GI50) in the experiment on Jurkat [2] is 75 µM; in experiment [3], 16.7 µM; in experiment [4], 9 µM; in the experiment with A549, 16.3 µM; in the experiment on PC-3, 13 µM; in experiment [5], 23.1 µM. Moreover, the GI50 in experiment [6] is 22.7 µM; in the experiment on HeLa it was 25 µM; in the experiment with LoVo, 24.4 µM; in the experiment on SK-MEL-28 it was 4.7 µM.
As to `N#CC1=C(N)OC2=C(C(=O)c3ccccc3C2=O)C1c1ccccc1Cl` (stereo not drawn), the Activity in the experiment on Jurkat [1] stood at 6.3%. Besides, the GI50 in the experiment with Jurkat [2] was determined as 185 µM; in [3] it was 19 µM; in the experiment with HeLa it was 20.5 µM.
As to `N#CC1=C(N)OC2=C(C(=O)c3ccccc3C2=O)C1c1ccccc1[N+](=O)[O-]` (stereo not drawn), the Activity with Jurkat [1] was found to be 25%. In addition, the results for the GI50 (with Jurkat [2]; in [3]; in the experiment with HeLa) were 16.8 µM, 8.3 µM and 11.2 µM, respectively.
As to `N#CC1=C(N)OC2=C(C(=O)c3ccccc3C2=O)C1c1c(Cl)cccc1Cl` (stereo not drawn), the Activity with Jurkat [1] amounted to 5.1%. Also, the GI50 is 172 µM in the experiment with Jurkat [2]; 3.1 µM in experiment [3]; 19.3 µM in [4]; 40.6 µM in the experiment with A549; 6.2 µM with PC-3; 12.8 µM in experiment [5]. The concentration for 50% growth inhibition (GI50) in experiment [6] was 17.4 µM; with HeLa it was 5.3 µM; with LoVo, 4.3 µM; in the experiment on SK-MEL-28 it was 17.1 µM.
For the compound `N#CC1=C(N)OC2=C(C(=O)c3ccccc3C2=O)C1c1cccc(Oc2ccccc2)c1` (stereo not drawn), the Activity in the experiment on Jurkat [1] worked out at 50%. Also, the GI50 was 17.9 µM in the experiment on Jurkat [2]; 2.2 µM in experiment [3]; 5 µM in [4]; 5 µM with A549; 6.2 µM in the experiment on PC-3; 3.4 µM in [5]. Also, the 50% growth inhibitory concentration (GI50) is 2.2 µM in [6], 4 µM in the experiment on HeLa, 3.4 µM in the experiment on LoVo and 4.5 µM with SK-MEL-28.
